Assay results as given in PubChem BioAssay AID1159565 (GlaxoSmithKline (GSK), 2015).
Active and inactive are the calls of the source. How the calls were made is not given here.

Test system: T. cruzi-infected H9C2 cardiomyocytes, high-content imaging
Test: anti-T. cruzi activity in infected cardiomyocytes – imaging, H9C2 host cardiomyocytes, host toxicity (AID 1159565);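 further: infected cells incubated 72 h after plating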
[1] = measured here: H9C2 host cell toxicity
[2] = measured here: amastigotes per cell

## CCCc1cc(N)nc(-c2cc(CCC)cc(N)n2)c1
  IC50: 0.63 µM
[1]
  IC50: 0.2 µM
[2]
  IC50: 0.5 µM

## CCOc1cc(NCCCN2CCN(C)CC2)c2ncccc2c1
  IC50: 1.3 µM
[1]
  IC50: 32 µM
[2]
  IC50: 1 µM

## COc1ccccc1-n1c(SCC(=O)Nc2ccc3c(c2)OCO3)nc2c(c1=O)SCC2
  IC50: 16 µM
[1]
  IC50: > 50 µM
[2]
  IC50: 7.9 µM

## COc1cc(-c2noc(CC#N)n2)ccc1OC(F)F
  IC50: 40 µM
[1]
  IC50: 32 µM
[2]
  IC50: 25 µM

## CNC(=O)C1Cc2ccccc2N1C(=O)Cc1ccc(F)cc1 (stereo not drawn)
  IC50: > 50 µM (inactive)
[1]
  IC50: > 50 µM
[2]
  IC50: > 50 µM

## c1ccc2[nH]c(-c3ccc(N4CCCC4)nc3)nc2c1
  IC50: 1.6 µM
[1]
  IC50: > 50 µM
[2]
  IC50: 1 µM

## O=C(CC1(O)C(=O)N(Cc2ccccc2)c2ccc(Br)cc21)c1cccnc1 (stereo not drawn)
  IC50: 25 µM
[1]
  IC50: 3.2 µM
[2]
  IC50: 20 µM

## O=C(Nc1nc(-c2ccc(F)cc2)cs1)c1ccc([N+](=O)[O-])s1
  IC50: 0.25 µM
[1]
  IC50: 4 µM
[2]
  IC50: 0.16 µM

## NC(=O)c1cc(NC(=O)c2ccccc2COc2ccccc2)ccc1Cl
  IC50: 32 µM
[1]
  IC50: > 50 µM
[2]
  IC50: 25 µM

## CCOc1ccc(Nc2ccc(S(=O)(=O)N3CCN(C)CC3)cc2[N+](=O)[O-])cc1OCC
  IC50: > 50 µM (inactive)
[1]
  IC50: > 50 µM
[2]
  IC50: 3.2 µM

## CC(C)C[C@H](NC(=O)c1ccc(-c2ccccc2)o1)C(=O)NC1(C#N)CC1
  IC50: > 50 µM (inactive)
[1]
  IC50: > 50 µM
[2]
  IC50: 25 µM

## CC(C)N(C(=O)CN1C(=O)C(N)C(=O)N(c2ccccc2)c2ccccc21)c1ccccc1 (stereo not drawn)
  IC50: 0.32 µM
[1]
  IC50: > 50 µM
[2]
  IC50: 0.4 µM

## O=C(NCCc1cccnc1)c1ccc(-c2ccccc2F)o1
  IC50: 0.2 µM
[1]
  IC50: > 50 µM
[2]
  IC50: 0.2 µM

## CC1CCCCN1C(=O)NCCc1coc(-c2ccc(F)cc2)n1 (stereo not drawn)
  IC50: 0.32 µM
[1]
  IC50: > 50 µM
[2]
  IC50: 0.32 µM

## CCCc1cc(C(=O)Nc2ncc(-c3cccc(Br)c3)n2C)n[nH]1
  IC50: 4 µM
[1]
  IC50: > 50 µM
[2]
  IC50: 2.5 µM

## Cc1cccc(N2CCCN(Cc3c[nH]c4ccccc34)CC2)n1
  IC50: 0.4 µM
[1]
  IC50: 2.5 µM
[2]
  IC50: 0.32 µM

## COc1ccc(NS(=O)(=O)c2cccc(NC(=O)c3cc(F)cc(F)c3)c2)cc1
  IC50: 0.5 µM
[1]
  IC50: > 50 µM
[2]
  IC50: 0.5 µM

## CCCCNc1nccc(-c2c(-c3ccc(F)cc3)nn3c(N4CCOCC4)cccc23)n1
  IC50: 3.2 µM
[1]
  IC50: > 50 µM
[2]
  IC50: 1 µM

## CCNc1cc(-c2ccccn2)nc(Nc2ccc(OC)cc2)n1
  IC50: 3.2 µM
[1]
  IC50: 0.32 µM
[2]
  IC50: 2.5 µM

## Cc1[nH]n2c(=O)c3c(nc2c1-c1ccc(Br)cc1)CCCC3
  IC50: 1.6 µM
[1]
  IC50: > 50 µM
[2]
  IC50: 0.79 µM

## COc1ccc(-c2cnc(NC(=O)c3ccc(F)cc3)n2C)cc1
  IC50: 5 µM
[1]
  IC50: > 50 µM
[2]
  IC50: 2 µM

## COc1ccc(-c2cc(C)no2)cc1S(=O)(=O)Nc1ccc(C)c(C)c1
  IC50: 7.9 µM
[1]
  IC50: 16 µM
[2]
  IC50: 5 µM

## COc1ccc(C(=O)Nc2cc(C(F)(F)F)ccc2N2CCOCC2)c(OC)c1
  IC50: 0.79 µM
[1]
  IC50: > 50 µM
[2]
  IC50: 0.32 µM

## CCS(=O)(=O)c1cccc(C(=O)Nc2nc(-c3ccccn3)cs2)c1
  IC50: 2.5 µM
[1]
  IC50: 4 µM
[2]
  IC50: 1.6 µM

## C[C@@H](Oc1cc(-n2cnc3cc(N)ccc32)sc1C(N)=O)c1ccccc1Cl
  IC50: 20 µM
[1]
  IC50: 1 µM
[2]
  IC50: 5 µM

## CC(CNS(=O)(=O)c1ccc(OC(F)F)cc1)c1ccc(NC(=O)c2ccncc2)cc1 (stereo not drawn)
  IC50: 0.1 µM
[1]
  IC50: > 50 µM
[2]
  IC50: 0.079 µM

## CC(C)C[C@H](NC(=O)c1csc(-c2cccs2)n1)C(=O)NC1(C#N)CC1
  IC50: > 50 µM (inactive)
[1]
  IC50: > 50 µM
[2]
  IC50: 20 µM

## O=C(Nc1ccccc1)Nc1nc(-c2ccccn2)cs1
  IC50: 1 µM
[1]
  IC50: 1 µM
[2]
  IC50: 0.63 µM

## COc1ccc(C2C3CCCCC3(O)CCN2CC(=O)Nc2ccc(Cl)cc2Cl)cc1 (stereo not drawn)
  IC50: 1.3 µM
[1]
  IC50: 20 µM
[2]
  IC50: 0.79 µM

## O=C(NCCCn1cnc2ccccc21)c1ccc(NC(=O)c2ccco2)cc1
  IC50: 2 µM
[1]
  IC50: > 50 µM
[2]
  IC50: 1.3 µM

## Cc1ccc(S(=O)(=O)Cn2nnnc2C(c2cccnc2)N2CCN(c3ccccc3)CC2)cc1 (stereo not drawn)
  IC50: 0.32 µM
[1]
  IC50: > 50 µM
[2]
  IC50: 0.32 µM

## OCC1CCCCN1c1cc(-c2ccccn2)nc(Nc2ccccc2)n1 (stereo not drawn)
  IC50: 4 µM
[1]
  IC50: 0.5 µM
[2]
  IC50: 2 µM

## O=C(Nc1nc2ccccc2[nH]1)c1ccc2nc[nH]c2c1
  IC50: > 50 µM (inactive)
[1]
  IC50: > 50 µM
[2]
  IC50: 50 µM

## CN1C(=O)c2ccccc2Sc2ccc(NC(=O)NCc3ccco3)cc21
  IC50: 13 µM
[1]
  IC50: 25 µM
[2]
  IC50: 6.3 µM

## Cc1cccnc1NC(=O)c1cccc(OCc2c(C)noc2C)c1
  IC50: 50 µM
[1]
  IC50: 2.5 µM
[2]
  IC50: 40 µM

## CCNc1cc(-c2ccccn2)nc(Nc2ccccc2)n1
  IC50: 3.2 µM
[1]
  IC50: 0.25 µM
[2]
  IC50: 3.2 µM

## O=C(NCc1ccc(Cl)cc1)C1CN(C(=O)c2ccc(F)cc2)CCS1 (stereo not drawn)
  IC50: 40 µM
[1]
  IC50: > 50 µM
[2]
  IC50: 32 µM

## CS(=O)(=O)c1ccc(Nc2nccc(Nc3n[nH]c4ccc(F)cc34)n2)c(F)c1
  IC50: 32 µM
[1]
  IC50: 16 µM
[2]
  IC50: 4 µM

## COc1ccc(Nc2nccc(N(C)c3n[nH]c4c(F)cccc34)n2)cc1S(C)(=O)=O
  IC50: 4 µM
[1]
  IC50: 7.9 µM
[2]
  IC50: 2 µM

## CS(=O)(=O)c1ccc(Nc2nccc(-c3cnn4ncccc34)n2)cc1
  IC50: 25 µM
[1]
  IC50: 5 µM
[2]
  IC50: 1 µM

## CCOc1ccc(CN(C)Cc2nc(N)nc(Nc3ccc(C)cc3)n2)cc1
  IC50: 5 µM
[1]
  IC50: 3.2 µM
[2]
  IC50: 5 µM

## CCS(=O)(=O)Nc1ccc(C2=NN(C(=O)c3cccs3)C(c3ccccc3OC)C2)cc1 (stereo not drawn)
  IC50: > 50 µM (inactive)
[1]
  IC50: > 50 µM
[2]
  IC50: > 50 µM

## NS(=O)(=O)c1ccc(CNC(=O)c2ccc([N+](=O)[O-])s2)cc1
  IC50: 5 µM
[1]
  IC50: 20 µM
[2]
  IC50: 0.79 µM

## CC(C(=O)Nc1ccccc1F)N(C)CC(=O)Nc1cccc2ccccc12 (stereo not drawn)
  IC50: 0.5 µM
[1]
  IC50: > 50 µM
[2]
  IC50: 0.32 µM

## CC(C)(C)C(=O)NCCc1csc(-c2ccc(F)cc2)n1
  IC50: 3.2 µM
[1]
  IC50: > 50 µM
[2]
  IC50: 2.5 µM

## O=[N+]([O-])c1ccc(C2=CC(c3ccccc3)=NCCN2)cc1
  IC50: 1 µM
[1]
  IC50: 32 µM
[2]
  IC50: 0.25 µM

## Cc1nn(-c2nc(N)nc(-c3ccccn3)n2)c(N)c1-c1ccccc1
  IC50: 5 µM
[1]
  IC50: 13 µM
[2]
  IC50: 1.3 µM

## N#Cc1cccc(Cc2cc(Nc3cc(C4CC4)[nH]n3)nc(N3CC[C@H]3C(N)=O)n2)c1
  IC50: 4 µM
[1]
  IC50: 0.004 µM
[2]
  IC50: 1 µM

## Cc1cc(C)cc(NS(=O)(=O)c2cc(-c3cc(C)[nH]n3)ccc2C)c1
  IC50: 1.6 µM
[1]
  IC50: 32 µM
[2]
  IC50: 1.3 µM

## Cc1[nH]nc(C(F)(F)F)c1NC(=O)CCn1cc(Cl)c([N+](=O)[O-])n1
  IC50: 25 µM
[1]
  IC50: > 50 µM
[2]
  IC50: 6.3 µM

## Nc1nonc1-c1nc2cncc(C(=O)N3CC[C@H](N)C3)c2n1CC1CC1
  IC50: > 50 µM (inactive)
[1]
  IC50: > 50 µM
[2]
  IC50: 13 µM

## Cc1cc(Br)cc(C(=O)c2c(C(C)C)c(=O)[nH]c(=O)n2Cc2ccnc(N)c2)c1
  IC50: 0.32 µM
[1]
  IC50: > 50 µM
[2]
  IC50: 0.25 µM

## O=c1ccn(-c2ccc([N+](=O)[O-])cc2Cl)c2ccc(F)cc12
  IC50: 4 µM
[1]
  IC50: > 50 µM
[2]
  IC50: 1.3 µM

## CCN(CC)c1ncc(C(=O)c2ccc([N+](=O)[O-])o2)s1
  IC50: 13 µM
[1]
  IC50: 5 µM
[2]
  IC50: 7.9 µM

## CCn1c(NC(=O)Cc2ccc(F)cc2)nc2ccccc21
  IC50: 7.9 µM
[1]
  IC50: > 50 µM
[2]
  IC50: 4 µM

## Cn1nc([N+](=O)[O-])nc1Oc1ccc(C(=O)c2ccccc2)cc1
  IC50: 0.32 µM
[1]
  IC50: > 50 µM
[2]
  IC50: 0.13 µM

## COCc1cc(Nc2ccccc2)nc(-c2ccccn2)n1
  IC50: 25 µM
[1]
  IC50: 4 µM
[2]
  IC50: 13 µM

## O=C(Cc1ccccc1)Nc1[nH]nc2sc(C(=O)NC3CCCC3)cc12
  IC50: 13 µM
[1]
  IC50: 1.3 µM
[2]
  IC50: 6.3 µM

## O=C(NCCc1csc(-c2ccc(F)cc2)n1)c1cccs1
  IC50: 0.4 µM
[1]
  IC50: > 50 µM
[2]
  IC50: 0.25 µM

## COc1ccc(C2CC(c3ccccc3Cl)=NN2C(=O)CNC(=O)C2CCC2)cc1 (stereo not drawn)
  IC50: 1.6 µM
[1]
  IC50: > 50 µM
[2]
  IC50: 1 µM

## COc1ccc(-c2csc(NC(=O)c3ccc([N+](=O)[O-])s3)n2)cc1OC
  IC50: 0.1 µM
[1]
  IC50: 6.3 µM
[2]
  IC50: 0.079 µM

## NCC(Cc1ccccc1)NC(=O)c1cnc(-c2c[nH]c3ncccc23)s1 (stereo not drawn)
  IC50: > 50 µM (inactive)
[1]
  IC50: 0.63 µM
[2]
  IC50: 20 µM

## CCCCN(C(=O)c1ccc(NC(=O)C(C)C)cc1)c1ccccc1
  IC50: > 50 µM (inactive)
[1]
  IC50: > 50 µM
[2]
  IC50: 10 µM

## COCc1cc(Nc2ccc(Cl)cc2)nc(-c2ccccn2)n1
  IC50: 5 µM
[1]
  IC50: 1.3 µM
[2]
  IC50: 2.5 µM

## CCN(C)Cc1ccc(N2CCC(NS(=O)(=O)c3ccc4c(c3)CCO4)CC2)nc1
  IC50: 1.3 µM
[1]
  IC50: > 50 µM
[2]
  IC50: 1 µM

## COc1ccc(-c2nc3ncccc3o2)cc1NC(=O)c1cccs1
  IC50: 2.5 µM
[1]
  IC50: > 50 µM
[2]
  IC50: 2 µM

## CN(Cc1nc2c(C(=O)N3CCN(Cc4ccccc4)CC3)cccc2[nH]1)C1CCCc2cccnc21 (stereo not drawn)
  IC50: 0.5 µM
[1]
  IC50: 7.9 µM
[2]
  IC50: 0.5 µM

## COc1cnc2ccc(=O)n(CCN3CCC(NC(=O)c4ccc(Cl)cc4)CC3)c2c1
  IC50: 0.25 µM
[1]
  IC50: 0.63 µM
[2]
  IC50: 0.079 µM

## CN(C)CCN(C)Cc1ccc(F)cc1NS(=O)(=O)c1ccc(Cl)c(Cl)c1
  IC50: 2.5 µM
[1]
  IC50: 6.3 µM
[2]
  IC50: 2 µM

## CCCCCNC(=O)c1c[nH]c2ccc(S(=O)(=O)N(C)c3ccc(OCC)cc3)cc2c1=O
  IC50: > 50 µM (inactive)
[1]
  IC50: > 50 µM
[2]
  IC50: > 50 µM

## Cc1cc2nc(CN(C)Cc3ncccc3C)[nH]c2cc1C
  IC50: 1 µM
[1]
  IC50: 13 µM
[2]
  IC50: 0.5 µM
